Like-named read-outs stand apart in the source and are kept apart here. Starred links: 1 amine or outer side, 2 acyl side, 3 side chain; linkers in the order of their positions; H or OH if unused. Non-standard residues stand in square brackets, D forms with d. Residues, ends and D or L forms follow the SMILES beside them. Groups on a side chain read outwards from the residue. *: point of attachment. C20 diacid = O=C(O)CCCCCCCCCCCCCCCCCCC(=O)*; C18 diacid = O=C(O)CCCCCCCCCCCCCCCCC(=O)*; γGlu = O=C(O)[C@H](CCC(=O)[*:2])N[*:1]; Palmitoyl = CCCCCCCCCCCCCCCC(=O)*; AEEA = NCCOCCOCC(=O)O; Aib = CC(C)(N)C(=O)O
Experiments:
human CRF2α receptor = target: T1, human CRF2α receptor (Homo sapiens, UniProt Q13324); assay: cAMP agonism at human CRF2 α receptor in TeloHEAC cells (Example 7); type: cell-based; conditions: cAMP HTRF, TeloHEAC cells stably expressing human CRF2 α
T1 construct: expressed in transfected cells; host or cells: TeloHEAC
T1 sequence (Q13324 1-411): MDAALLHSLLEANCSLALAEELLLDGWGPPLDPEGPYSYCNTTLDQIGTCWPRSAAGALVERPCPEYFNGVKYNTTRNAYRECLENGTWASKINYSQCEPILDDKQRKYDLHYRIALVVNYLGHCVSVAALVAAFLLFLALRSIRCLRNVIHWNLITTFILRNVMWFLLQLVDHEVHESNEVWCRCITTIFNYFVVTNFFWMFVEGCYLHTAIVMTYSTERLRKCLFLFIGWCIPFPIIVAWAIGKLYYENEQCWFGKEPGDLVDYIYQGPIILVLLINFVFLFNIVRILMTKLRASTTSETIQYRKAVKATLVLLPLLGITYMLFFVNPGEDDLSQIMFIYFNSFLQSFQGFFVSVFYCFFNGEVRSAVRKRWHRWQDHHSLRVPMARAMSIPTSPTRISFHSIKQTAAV
Summary of the method: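 Thawed frozen stably transfected cells in HBSS/20 mM HEPES (0% or 0.1% HSA) plus 2 mM IBMX were exposed to compound at 2000 cells/well for 30 min at room temperature. Intracellular cAMP was read by HTRF (665/620 nm ratio) after 1 h lysis; EC50 was derived with 1000 nM urocortin 2 set as 100%.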

CRF1R receptor = target: T2, CRF1R receptor (Homo sapiens, UniProt P34998); assay: cAMP activity at anti-target CRF1R, CRF1R-overexpression CHO cell line (Example 9); type: cell-based; conditions: CRF1R-overexpression CHO cell line; for Emax: read-out: Emax (%); for EC50: 0% HSA
T2 construct: host or cells: CHO-K1 clone 2
T2 sequence (P34998 24-415): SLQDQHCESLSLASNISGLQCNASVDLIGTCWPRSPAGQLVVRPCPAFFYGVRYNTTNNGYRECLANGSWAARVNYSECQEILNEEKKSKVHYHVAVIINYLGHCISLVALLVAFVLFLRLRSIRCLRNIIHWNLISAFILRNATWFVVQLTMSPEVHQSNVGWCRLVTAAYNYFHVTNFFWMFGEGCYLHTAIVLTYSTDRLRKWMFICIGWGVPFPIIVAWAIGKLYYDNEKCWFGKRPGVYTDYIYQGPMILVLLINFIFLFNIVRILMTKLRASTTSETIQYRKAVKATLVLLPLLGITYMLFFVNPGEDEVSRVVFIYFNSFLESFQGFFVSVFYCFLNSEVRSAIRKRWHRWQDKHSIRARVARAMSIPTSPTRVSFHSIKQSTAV
Summary of the method: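 cAMP accumulation was read by HTRF after 30 min at room temperature of compound treatment. Cells were cryopreserved CHO cells overexpressing CRF1R, plated at 2000/well in IBMX (2 mM)-containing HBSS/HEPES buffer with 0 or 0.1% HSA. Activity was normalized to 1000 nM UCN2 as 100%.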

[1] = Solubility in buffer systems by UPLC-UV (Example 13); type: physicochemical
Summary of the method: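 The supernatant was diluted 1:10 and quantified by UPLC-UV peak area against a reference standard curve, correcting for sequence-based extinction coefficients.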

[2] = Physical stability, Thioflavin T fibrillation assay (Example 14); type: physicochemical; conditions: 3 mg/ml, 37° C. shaking
Method: The physical stability of the compounds was assessed using a Thioflavin T (ThT) assay.
The time course for fibril formation often follows the characteristic shape of a sigmoidal curve and can be separated into three regions: a lag phase, a fast growth phase, and a plateau phase. The typical fibril formation process starts with the lag phase in which the amount of partially folded peptide turned into fibrils is not significant enough to be detected. The lag-time corresponds to the time the critical mass of the nucleus is built. Afterwards, a drastic elongation phase follows and fibril concentration increases rapidly. Therefore, by measuring the increase in fluorescence intensity attributable to ThT as well as the lag time of the increase, the fibrillation tendency of a peptide can be determined, thereby providing a measure of the physical stability of the peptide.
In the present study, test compounds were diluted in buffer to a final concentration of 3 mg/ml.
The fibrillation tendencies of the peptides were determined under stress using a Fluoroskan Ascent FL or Fluoroskan Ascent fluorometer. […] Plates were sealed with Scotch Tape (Quiagen). Samples were stressed by continuous cycles of 10 s shaking at 960 rpm and 50 s rest period at 37° C. Fibril development was monitored by measuring fluorescence intensity every 20 minutes. For each sample, eight replicates were tested.

rat CRF2R α receptor = assay: cAMP agonism at rat CRF2R α receptor in A7R5 rat aortic smooth muscle cells (Example 8); type: cell-based; conditions: cAMP HTRF, A7R5 rat aortic smooth muscle cell line, 0% HSA
Summary of the method: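 Thawed cryopreserved A7R5 cells in HBSS/20 mM HEPES (0 or 0.1% HSA) with 2 mM IBMX, 2000 cells/well, were exposed to compound for 30 min at room temperature. cAMP was read by HTRF (665/620 nm ratio) after 1 h with lysis reagents. Activity was normalised to 1000 nM urocortin 2 as 100%, and EC50 was taken as the concentration giving 50% of maximal activation.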

[3] = 0% HSA, read-out: EC50 [nM], 0% HSA
[4] = pH 4.5, Solubility in Buffer B [mg/ml]
[5] = Buffer B: 100 mM acetate buffer, pH 4.5, 2.7 mg/ml m-cresol
[6] = Buffer A: 100 mM acetate buffer, pH 4.5

| SMILES | EC50 (human CRF2α receptor; [3]) | EC50 (human CRF2α receptor; 0.1% HSA, read-out: EC50 [nM], 0.1% HSA) | Emax (CRF1R receptor) | solubility at 1 h [1, 4] | Increase in FI (fluorescence intensity) [2, 5] | Lag time [2, 5] | EC50 (rat CRF2R α receptor) | EC50 (CRF1R receptor) | solubility at 1 h ([1]; pH 7.4, Solubility in Buffer C [mg/ml]) | Increase in FI (fluorescence intensity) [2, 6] | Lag time [2, 6] |
| --- | --- | --- | --- | --- | --- | --- | --- | --- | --- | --- | --- |
| CCCCCCCCCCCCCCCC(=O)N[C@@H](CCC(=O)NCCCC[C@H](NC(=O)[C@H](CC(C)C)NC(=O)[C@H](CCCCN)NC(=O)[C@@H](NC(=O)[C@@H]1CCCN1C(=O)[C@H](NC(=O)[C@H](CC(=O)O)NC(=O)[C@H](CC(C)C)NC(=O)[C@H](CO)NC(=O)[C@H](CC(C)C)NC(=O)[C@@H](NC(=O)[C@@H](N)[C@@H](C)CC)C(C)C)C(C)C)[C@@H](C)O)C(=O)N[C@@H](CCC(N)=O)C(=O)N[C@@H](CCCCN)C(=O)N[C@@H](CC(C)C)C(=O)N[C@@H](CC(C)C)C(=O)N[C@@H](CCCCN)C(=O)N[C@@H](CCC(N)=O)C(=O)N[C@@H](CCC(=O)O)C(=O)N[C@@H](CCCNC(=N)N)C(=O)N[C@@H](CCC(N)=O)C(=O)N[C@@H](CCCNC(=N)N)C(=O)N[C@@H](CCCCN)C(=O)N[C@@H](CCC(=O)O)C(=O)N[C@@H](CCCNC(=N)N)C(=O)N[C@@H](CCC(=O)O)C(=O)N[C@@H](CCC(N)=O)C(=O)N[C@@H](C)C(=O)N[C@@H](CCC(=O)O)C(=O)N[C@@H](CCCCN)C(=O)N[C@@H](CC(N)=O)C(=O)N[C@@H](C)C(=O)N[C@@H](CCCNC(=N)N)C(=O)N[C@H](C(=O)N[C@@H](CC(C)C)C(=O)N[C@@H](C)C(=O)N[C@@H](CCCNC(=N)N)C(=O)N[C@H](C(N)=O)C(C)C)[C@@H](C)CC)C(=O)O [compound 7] (H-IVLSLD[dV]PTKLK([γGlu-Palmitoyl])QKLLKQERQRKEREQAEKNARILARV-NH2) | 0.02 nM | 0.03 nM | 58.6% | > 8.9 mg/mL | No | >45 h |  |  |  |  |  |
| CC[C@H](C)[C@H](NC(=O)[C@H](CCC(N)=O)NC(=O)[C@H](CCCCNC(=O)COCCOCCNC(=O)COCCOCCNC(=O)CC[C@H](NC(=O)CCCCCCCCCCCCCCCCCCC(=O)O)C(=O)O)NC(=O)[C@@H](NC(=O)[C@H](CCCCN)NC(=O)[C@@H](NC(=O)[C@@H]1CCCN1C(=O)[C@@H](NC(=O)[C@H](CC(=O)O)NC(=O)[C@H](CC(C)C)NC(=O)[C@H](CO)NC(=O)[C@H](CC(C)C)NC(=O)[C@@H](NC(=O)[C@@H](N)Cc1ccccc1)[C@@H](C)O)C(C)C)[C@@H](C)O)[C@@H](C)CC)C(=O)N[C@@H](CC(C)C)C(=O)N[C@@H](CC(C)C)C(=O)N[C@@H](CCCCN)C(=O)N[C@@H](CCC(N)=O)C(=O)N[C@@H](CCC(N)=O)C(=O)N[C@@H](CCCCN)C(=O)N[C@@H](CCC(N)=O)C(=O)N[C@@H](CCCCN)C(=O)N[C@@H](CCCCN)C(=O)N[C@@H](CCC(=O)O)C(=O)N[C@@H](CCCNC(=N)N)C(=O)N[C@@H](CCC(N)=O)C(=O)N[C@@H](CCC(N)=O)C(=O)N[C@@H](C)C(=O)N[C@@H](CCC(=O)O)C(=O)N[C@@H](CCCCN)C(=O)N[C@@H](CC(N)=O)C(=O)N[C@@H](CCCCN)C(=O)N[C@@H](CCC(N)=O)C(=O)N[C@@H](CC(C)C)C(=O)N[C@@H](CC(C)C)C(=O)N[C@@H](CCC(=O)O)C(=O)N[C@@H](CCCNC(=N)N)C(=O)N[C@H](C(N)=O)C(C)C [compound 60] (H-FTLSLDVPTKIK([AEEA-AEEA-γGlu-C20 diacid])QILLKQQKQKKERQQAEKNKQLLERV-NH2) | 0.48 nM |  | 4.84% | > 11.5 mg/mL | No | >45 h | 1.35 nM | > 1000 nM | > 11 mg/mL | No | >45 h |
| CC[C@H](C)[C@H](N)C(=O)N[C@H](C(=O)N[C@@H](CC(C)C)C(=O)N[C@@H](CO)C(=O)N[C@@H](CC(C)C)C(=O)N[C@@H](CC(=O)O)C(=O)N[C@H](C(=O)N1CCC[C@H]1C(=O)N[C@H](C(=O)N[C@@H](CCCCN)C(=O)N[C@@H](CC(C)C)C(=O)N[C@@H](CCCCNC(=O)COCCOCCNC(=O)COCCOCCNC(=O)CC[C@H](NC(=O)CCCCCCCCCCCCCCCCC(=O)O)C(=O)O)C(=O)N[C@@H](CCC(N)=O)C(=O)N[C@H](C(=O)N[C@@H](CC(C)C)C(=O)N[C@@H](CC(C)C)C(=O)N[C@@H](CCC(=O)O)C(=O)N[C@@H](CCC(N)=O)C(=O)N[C@@H](CCC(=O)O)C(=O)N[C@@H](CCCNC(=N)N)C(=O)N[C@@H](CCC(N)=O)C(=O)N[C@@H](CCCCN)C(=O)N[C@@H](CCCCN)C(=O)N[C@@H](CCC(N)=O)C(=O)N[C@@H](CCCNC(=N)N)C(=O)N[C@@H](CCC(N)=O)C(=O)N[C@@H](CCC(N)=O)C(=O)N[C@@H](C)C(=O)N[C@@H](CCC(=O)O)C(=O)N[C@H](C(=O)N[C@@H](CC(N)=O)C(=O)NC(C)(C)C(=O)N[C@@H](CCC(N)=O)C(=O)N[C@H](C(=O)N[C@@H](CC(C)C)C(=O)N[C@@H](C)C(=O)N[C@@H](CCC(N)=O)C(=O)N[C@H](C(N)=O)C(C)C)[C@@H](C)CC)[C@@H](C)O)[C@@H](C)CC)[C@@H](C)CC)C(C)C)C(C)C [compound 72] (H-IVLSLDVPIKLK([AEEA-AEEA-γGlu-C18 diacid])QILLEQERQKKQRQQAETN[Aib]QILAQV-NH2; N-terminus assumed) | 0.65 nM |  | 2.58% | > 10.7 mg/mL | Yes | 34.7 to 41.0 h | 4.31 nM | > 1000 nM |  |  |  |
